As a reminder, the IC50 is the concentration that gives 50% inhibition. Low values mean greater potency, high ones weaker potency. One may read the melting point as the temperature, or range, at which the solid turns liquid.

From paper PMC6032016, “Synthesis, biological evaluation, and molecular modelling studies of potent human neutrophil elastase (HNE) inhibitors” (Journal of Enzyme Inhibition and Medicinal Chemistry, 2018) come the findings set out here.

The target in data set [1] is T1, HNE (human neutrophil elastase) (Homo sapiens, UniProt P08246).
T1 construct: purchased Calbiochem
T1 sequence (P08246 30-267): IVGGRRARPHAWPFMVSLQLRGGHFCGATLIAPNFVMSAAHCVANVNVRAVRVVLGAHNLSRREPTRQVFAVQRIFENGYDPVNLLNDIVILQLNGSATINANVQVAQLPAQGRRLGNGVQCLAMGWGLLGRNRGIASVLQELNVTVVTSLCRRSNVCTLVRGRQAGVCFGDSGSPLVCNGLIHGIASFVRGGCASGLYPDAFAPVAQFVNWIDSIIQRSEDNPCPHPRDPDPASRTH
Briefly: HNE inhibition assay (fluorogenic substrate cleavage). In kind it is biochemical. The conditions noted are these: mean ± SD of three independent experiments; NA: no inhibitory activity at the highest concentration tested (50 µM).
Protocol: Compounds were dissolved in 100% DMSO at 5 mM stock concentrations. […] The HNE inhibition assay was performed in black flat-bottom 96-well microtiter plates. Briefly, a buffer solution containing 200 mM Tris–HCl, pH 7.5, 0.01% bovine serum albumin, and 0.05% Tween-20 and 20 mU/mL of HNE (Calbiochem) was added to wells containing different concentrations of each compound. The reaction was initiated by addition of 25 µM elastase substrate (N-methylsuccinyl-Ala-Ala-Pro-Val-7-amino-4-methylcoumarin, Calbiochem) in a final reaction volume of 100 µl/well. Kinetic measurements were obtained every 30 s for 10 min at 25 °C using a Fluoroskan Ascent FL fluorescence microplate reader (Thermo Electron, MA) with excitation and emission wavelengths set at 355 and 460 nm, respectively. For all compounds tested, the concentration of inhibitor that caused 50% inhibition of the enzymatic reaction (IC50) was calculated by plotting % inhibition versus logarithm of inhibitor concentration (at least six points). The data are presented as the mean values of at least three independent experiments with relative standard deviations of <15%.

A short description of data set [2]: Analysis of compound stability: spontaneous hydrolysis in aqueous buffer. In kind it is physicochemical. To be noted: 25 °C, 0.05 M phosphate buffer, pH 7.3; read-out: t1/2 for spontaneous hydrolysis (converted). The procedure:
Spontaneous hydrolysis of selected derivatives was evaluated at 25 °C in 0.05 M phosphate buffer, pH 7.3. Kinetics of hydrolysis were monitored by measuring changes in the absorbance spectra over time using a SpectraMax Plus microplate spectrophotometer (Molecular Devices, Sunnyvale, CA). Absorbance (At) at the characteristic absorption maxima of each compound was measured at the indicated times until no further absorbance decreases occurred (A∞)[52]. Using these measurements, we created semilogarithmic plots of log(At–A∞) versus time, and k′ values were determined from the slopes of these plots. Half-conversion times were calculated using t1/2 = 0.693/k′, as described previously[36]^,[37].

Data set [3] deals with T2, HNE (Homo sapiens, UniProt P08246).
T2 construct: purchased Calbiochem
T2 sequence (P08246 30-267): T1 sequence (P08246 30-267)
Put plainly: Reversibility of HNE inhibition over extended periods of time. The class given is biochemical. To be noted: 8 µM compound. The procedure: The inhibition was maximal for up to 60 min with compound 7e and >120 min for the other tested compounds (4a, 4b, and 7a). However, inhibition by the compounds was eventually reversed, and full recovery of HNE activity was observed by 4 h after treatment with 8 µM of the compound (e.g. see Figure 6).
Figure 6. […] HNE was incubated with the indicated compounds (8 µM), and kinetic curves monitoring substrate cleavage catalysed by HNE over time are shown. Representative curves are from two independent experiments.

Data set [4] deals with T2, HNE. Briefly: Kinetics of HNE inhibition (double-reciprocal Lineweaver–Burk plots). The class given is biochemical. To be noted: Lineweaver–Burk plot of fluorogenic substrate hydrolysis. The text has this:
To better understand the mechanism of action of these isoxazolone HNE inhibitors, we performed kinetic experiments.
Figure 7. Kinetics of HNE inhibition by compounds 7d and 8d. Representative double reciprocal Lineweaver–Burk plots are shown from three independent experiments.

`Cc1cccc(C(=O)n2oc(=O)c(-c3ccccc3)c2C)c1` [Compound 4a, 3-Methyl-2-(3-methylbenzoyl)-4-phenylisoxazol-5(2H)-one] showed a melting point of 85 to 88 °C. The compound further had an IC50 in data set [1] of 77 ± 27 nM. In addition, in data set [2], the half-life is 4.1 h. At HNE [3], the “time for which HNE inhibition was maximal” value is listed as above 120 min.
For the compound `Cc1c(-c2ccccc2)c(=O)on1C(=O)C1CC1` [Compound 4b, 2-(Cyclopropanecarbonyl)-3-methyl-4-phenylisoxazol-5(2H)-one], the melting point fell in the range of 83 to 86 °C. The compound further displayed an IC50 in data set [1] of 59 ± 18 nM. The half-life in data set [2] was 8.3 h. Besides, the “time for which HNE inhibition was maximal” value at HNE [3] is on record as above 120 min.
Compound `Cc1ccc(-c2c(C)n(C(=O)c3cccc(C)c3)oc2=O)cc1` [Compound 7a, 3-Methyl-2-(3-methylbenzoyl)-4-(p-tolyl)isoxazol-5(2H)-one] showed an IC50 in data set [1] of 20 ± 9 nM. In addition, the half-life in data set [2] is 7.7 h. Also, the “time for which HNE inhibition was maximal” value on HNE [3] is on record as above 120 min.
With `Cc1cccc(C(=O)n2oc(=O)c(-c3ccc(C#N)cc3)c2C)c1` [Compound 7b, 4-(3-Methyl-2-(3-methylbenzoyl)-5-oxo-2,5-dihydroisoxazol-4-yl)benzonitrile], the melting point was 108 to 110 °C. This compound showed an IC50 in data set [1] of 70 ± 20 nM. Also, the “time after which HNE inhibition was reversed” value on HNE [3] is around 30 min.
As to `CC(=O)Nc1ccc(-c2c(C)n(C(=O)c3cccc(C)c3)oc2=O)cc1` [Compound 7d, N-(4-(3-methyl-2-(3-methylbenzoyl)-5-oxo-2,5-dihydroisoxazol-4-yl)phenyl)acetamide], the melting point was 159 to 160 °C. Moreover, the “mechanism of HNE inhibition” value on HNE [4] was “competitive”. This compound gave an IC50 in data set [1] of 50 ± 20 nM. Further, the half-life in data set [2] was 3.9 h. Moreover, on HNE [3], the “time after which HNE inhibition was reversed” value is on record as around 30 min.
Take `Cc1cccc(C(=O)n2oc(=O)c(-c3ccc(NC(=O)C4CC4)cc3)c2C)c1` [Compound 7e, N-(4-(3-methyl-2-(3-methylbenzoyl)-5-oxo-2,5-dihydroisoxazol-4-yl)phenyl)ciclopropanecarboxamide]: the melting point lay in the range of 120 to 123 °C. In addition, the midpoint of inhibition in data set [1], the IC50, lay at 50 ± 20 nM. Also, the half-life in data set [2] was 9.6 h. Besides, the “time for which HNE inhibition was maximal” value on HNE [3] is “up to 60 min”.
The compound `CC(=O)Nc1ccc(-c2c(C)noc2OC(=O)c2cccc(C)c2)cc1` [Compound 8d, 4-(4-Acetamidophenyl)-3-methylisoxazol-5-yl3-methylbenzoate] had a melting point of 57 to 60 °C. In addition, at HNE [4], the “mechanism of HNE inhibition” value is given as “competitive”. In data set [1], this compound came in with an IC50 of 540 ± 110 nM. Further, the half-life in data set [2] was 2.9 h.
